From patent US7803801B2, “Aminopyridine compounds having Syk inhibitory activity” (Japan Tobacco, Inc., priority 2005, dated 2010)
Like-named read-outs stand apart in the source and are kept apart here. One block for each molecule: values may come before it.

Legend:
[1] = biological target: GST-Syk Full Protein (human) (Homo sapiens, UniProt P43405); experiment: Syk kinase inhibition test (HTRF method); type: biochemical
Outline: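 Human GST-Syk full-length (6.4 nM) phosphorylated biotin-EDPDYEWPSA-NH2 (250 nM) with 100 μM ATP in HEPES pH 7.0/MgCl2 buffer, 2% DMSO, 30 min at room temperature. EDTA stop, then HTRF detection (streptavidin-XL665, Eu anti-phosphotyrosine) after 1 h; 665/620 ratio read.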

[2] = test system: cultured human mast cells; experiment: Degranulation inhibition test using cultured human mast cells (IgE cross-linking, β-Hexosaminidase release); type: cell-based; settings: Mast cell, cultured human mast cells, read-out: human degranulation ave. IC50
Outline: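 CD34+ cord-blood cells cultured ≥8 weeks with SCF/IL-6/IL-3; FcεRI primed 5 days with rhIL-4 (1 ng/mL) and hIgE (0.5 μg/mL). Compound (0.1% DMSO) preincubated 10 min at 37 °C, then anti-IgE (final 10 μg/mL) 30 min; released β-hexosaminidase read at 405 nm versus total lysate, IC50 (M).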

[3] = HTRF, 100 μM ATP, 30 min room temperature, average, read-out: sykHTRF ave IC50
[4] = anti-hIgE stimulation, β-Hexosaminidase index, average
[5] = Tables 1-x, compounds A, read-out: sykHTRF ave IC50

Structure (SMILES): CNC(=O)COCC1CCCN(c2ncc(-c3cccc(Nc4cc(C)ccn4)n3)s2)C1 (centres unmarked) [Compound A-502, N-methyl-2-(1-{5-[6-(4-methylpyridin-2-ylamino)pyridin-2-yl]thiazol-2-yl}piperidin-3-ylmethoxy)acetamide]
IC50 [1, 5]: < 0.1 µM
IC50 ([2]; Tables 1-x, compounds A): 0.1 to 1 µM

Structure (SMILES): Cc1ccnc(Nc2cccc(-c3cc(C)c(C(C)O)s3)n2)c1 (centres unmarked) [Compound B-70]
IC50 ([1]; Tables 2-x, thiophene compounds B, read-out: sykHTRK ave IC50): 0.1 to 1 µM
IC50 ([2]; Tables 2-x, thiophene compounds B): 0.1 to 1 µM

Structure (SMILES): CC(=O)O[C@@H]1C[C@@H](c2ncc(-c3cccc(Nc4cc(C)ccn4)n3)s2)N(C(C)=O)C1 [Compound A-93]
IC50 [1, 3]: 0.1 to 1 µM
IC50 [2, 4]: > 1 µM

Structure (SMILES): Cc1ccnc(Nc2cccc(-c3cnc(N(C)C4CCN(C(=O)CCC(=O)O)CC4)s3)n2)c1 [Compound A-553, 4-[4-(N-methyl-N-{5-[6-(4-methylpyridin-2-ylamino)pyridin-2-yl]thiazol-2-yl}amino)piperidin-1-yl]-4-oxobutyric acid]
IC50 [1, 5]: < 0.1 µM
IC50 ([2]; Tables 1-x, compounds A): > 1 µM

Structure (SMILES): COC(=O)NCCc1ncc(-c2cccc(Nc3cc(C)ccn3)n2)s1 [Compound A-308]
IC50 [1, 3]: 0.1 to 1 µM
IC50 [2, 4]: 0.1 to 1 µM

Structure (SMILES): Cc1ccnc(Nc2cccc(-c3cnc(C4CCN(C(=O)CS(C)(=O)=O)CC4)s3)n2)c1 [Compound A-397]
IC50 [1, 5]: 0.1 to 1 µM
IC50 ([2]; Tables 1-x, compounds A): 0.1 to 1 µM

Structure (SMILES): CC(=O)N1CCC[C@H]1c1ncc(-c2cccc(Nc3cc(C)ccn3)n2)s1 [Compound A-48]
IC50 [1, 3]: 0.1 to 1 µM
IC50 [2, 4]: 0.1 to 1 µM

Structure (SMILES): Cc1ccnc(Nc2cccc(-c3cnc([C@H](C)NC(=O)C4CC4)s3)n2)c1 [Compound A-141]
IC50 [1, 3]: 0.1 to 1 µM
IC50 [2, 4]: 0.1 to 1 µM

Structure (SMILES): CN[C@@H](C)c1ncc(-c2cccc(Nc3cc(C)ccn3)n2)s1 [Compound A-51]
IC50 [1, 3]: 0.1 to 1 µM
IC50 [2, 4]: 0.1 to 1 µM

Structure (SMILES): COC(=O)CCCc1ncc(-c2cccc(Nc3cc(C)ccn3)n2)s1 [Compound A-130]
IC50 [1, 3]: 0.1 to 1 µM
IC50 [2, 4]: > 1 µM

Results, then the molecule that gave them:

IC50 [1, 3]: 0.1 to 1 µM
IC50 [2, 4]: > 1 µM
Structure (SMILES): Cc1ccnc(Nc2cccc(-c3cnc(CCC4CCN(C(=O)C5CCC(O)CC5)CC4)s3)n2)c1 (centres unmarked) [Compound A-294]

IC50 [1, 3]: 0.1 to 1 µM
IC50 [2, 4]: > 1 µM
Structure (SMILES): COC(=O)CCNCc1ncc(-c2cccc(Nc3cc(C)ccn3)n2)s1 [Compound A-163]

IC50 [1, 3]: < 0.1 µM
IC50 [2, 4]: > 1 µM
Structure (SMILES): CNC(=O)C1CCN(c2ncc(-c3cccc(Nc4cc(C)ccn4)n3)s2)CC1 [Compound A-4, N-methyl-1-{5-[6-(4-methylpyridin-2-ylamino)pyridin-2-yl]thiazol-2-yl}piperidine-4-carboxamide]

IC50 [1, 3]: 0.1 to 1 µM
IC50 [2, 4]: 0.1 to 1 µM
Structure (SMILES): Cc1ccnc(Nc2cccc(-c3cnc([C@H](C)NS(C)(=O)=O)s3)n2)c1 [Compound A-58]

IC50 [1, 3]: 0.1 to 1 µM
IC50 [2, 4]: > 1 µM
Structure (SMILES): Cc1ccnc(Nc2cccc(-c3cnc(CC(C)(C)CC(=O)O)s3)n2)c1 [Compound A-157]

IC50 [1, 3]: 0.1 to 1 µM
IC50 [2, 4]: 0.1 to 1 µM
Structure (SMILES): Cc1ccnc(Nc2cccc(-c3cnc(CN4C(=O)CCCC4=O)s3)n2)c1 [Compound A-350]

IC50 [1, 3]: 0.1 to 1 µM
IC50 [2, 4]: > 1 µM
Structure (SMILES): Cc1ccnc(Nc2cccc(-c3cnc([C@H](N)c4ccc(OCc5ccccc5)cc4)s3)n2)c1 [Compound A-150]

IC50 [1, 3]: 0.1 to 1 µM
IC50 [2, 4]: 0.1 to 1 µM
Structure (SMILES): CC(=O)N[C@H](c1ncc(-c2cccc(Nc3cc(C)ccn3)n2)s1)C(C)C [Compound A-38]

IC50 [1, 3]: 0.1 to 1 µM
IC50 [2, 4]: > 1 µM
Structure (SMILES): Cc1ccnc(Nc2cccc(-c3cnc(CC(=O)N4CCC(O)CC4)s3)n2)c1 [Compound A-230]

IC50 [1, 3]: 0.1 to 1 µM
IC50 [2, 4]: 0.1 to 1 µM
Structure (SMILES): COC1CCN(C(=O)[C@H]2CC[C@H](c3ncc(-c4cccc(Nc5cc(C)ccn5)n4)s3)CC2)CC1 [Compound A-280]

IC50 [1, 3]: < 0.1 µM
IC50 [2, 4]: 0.1 to 1 µM
Structure (SMILES): Cc1ccnc(Nc2cccc(-c3cnc(CCc4cccc(CO)c4)s3)n2)c1 [Compound A-277, [3-(2-{5-[6-(4-methylpyridin-2-ylamino)pyridin-2-yl]thiazol-2-yl}ethyl)phenyl]methanol]

IC50 [1, 3]: < 0.1 µM
IC50 [2, 4]: 0.1 to 1 µM
Structure (SMILES): CON(C)C(=O)c1ncc(-c2cccc(Nc3cc(C)ccn3)n2)s1 [Compound A-46, N-methoxy-N-methyl-5-[6-(4-methylpyridin-2-ylamino)pyridin-2-yl]thiazole-2-carboxamide]
